“Also recorded” adds a separate entry of the source.
Assays:
[1] = Solubility of the isolated vandaterosides; type: physicochemical
[2] = tested on: mitochondrial dehydrogenases (complex I and complex II) of normal human keratinocytes (NHKs); assay: Stimulation of mitochondrial dehydrogenases on keratinocytes (XTT conversion to formazan); type: cell-based; conditions: treatment 48 h; for Stimulation of mitochondrial dehydrogenase activity / mitochondrial respiratory functions (XTT): NHKs without irradiation, 6.25 to 0.78 μg/ml
Method: Normal human keratinocytes (NHKs), isolated from eyelids of 37-year-old Caucasian women, are cultured at passage 3 in complemented (Invitrogen) Keratinocyte Serum Free Medium (KSFM, Invitrogen) supplemented with 5% of fetal calf serum (FCS, Invitrogen).
The NHKs are seeded in 96-well plates (Greiner Bio One) in a proportion of 1.10^4 cells/well, and then incubated at 37° C., 5% CO2 for 24 h. These cells are then treated, after UVB irradiation (60 mJ/cm^2 Vilbeit-Lourmat irradiator) or without irradiation, with serial dilutions of the VT1, VT2 and VT3 compounds (from 6.25 to 0.78 μg/ml) diluted in DMSO (sigma) 0.1% v/v final concentration. The plates are incubated at 37° C., 5% CO2. The untreated cells containing 0.1% v/v of DMSO are considered to be a negative control. After treatment for 48 h, the supernatants are removed and the XTT solution (Cell proliferation kit II, Roche Diagnostic) is deposited in each well in order to determine the overall activity of the mitochondrial dehydrogenases. This activity is evaluated by means of the conversion of an XTT tetrazolium salt to soluble formazan, via a cell mechanism which calls for the enzymatic activities of the glycolytic NAD(P)H dehydrogenase (complex I) and of succinate dehydrogenase (complex II), which are constituents of the mitochondrial respiratory chain. The amount of colored formazan (determined by reading optical density at 450 nm) is directly related, firstly, to the enzymatic activity of the mitochondrial dehydrogenases and, secondly, to the amount of metabolically active cells (Roehm et al. J. Immunol. Methods, 1991; 142: 257-265). […] The 96-well plates are read at 450 nm with a spectrofluorometer (SpectraFluor Plus, Tecan). […]
The results are expressed as mean of the optical densities (OD) at 450 nm and standardized relative to the total concentration of cell proteins (expressed in μg/ml), which makes it possible to measure only the activity of the dehydrogenases and to dispel with the impact of cell proliferation on the measurement of the ODs obtained. […]

[3] = tested on: cytochrome C oxidase; assay: Stimulation of cytochrome C oxidase on modified human keratinocytes (HaCaT); type: cell-based; conditions: for Activation of cytochrome C oxidase activity: HaCaT cells, treatment 3 h, positive control resveratrol 11.41 μg/ml (50 μM)
Method: The objective of the study is to evaluate the potential of the compounds which are the subject of the invention for stimulating the performance levels of the mitochondrial respiratory chain. The assays are carried out on genetically modified human keratinocytes (HaCaT).
The HaCaT cells were cultured in 6-well plates in RPMI 1640 medium (Roswell Park Memorial Institute) w/o HEPES (Invitrogen) supplemented with 10% of fetal calf serum (FCS, Invitrogen) and a penicillin/streptomycin mixture, until confluence. They were then treated, in DMEM (Dulbecco's Modified Eagle Medium, Invitrogen) containing 4.5 g/L of glucose, 0.1% BSA (Bovine Serum albumin AM2618 Invitrogen), with serial dilutions of vandaterosides (from 6.25 to 0.78 μg/ml) diluted in DMSO (0.1% v/v final concentration). Resveratrol (Sigma) at 50 μM, i.e. 11.41 μg/ml, was used as positive reference. The untreated cells containing 0.1% v/v of DMSO were considered to be a negative control. After treatment for 3 h, the cells were lysed (20 mM HEPES, 0.1% Triton, 1 mM EDTA) and the total cell proteins were assayed by means of the Bradford technique (B6916 Sigma). The total protein concentration of each sample was then adjusted to 2 mg/ml.
The cell lysate was incubated in the presence of an assay buffer (Sigma) in order to determine the enzymatic kinetics without the addition of substrate, denoted Vo. Cytochrome C (from equine heart C-7752 Sigma) reduced with DTT (dithiothreitol, Sigma) was added to the assay buffer at 50 μM in order to measure the rate of the enzymatic reaction. The disappearance of the reduced cytochrome C was monitored using a spectrophotometer [Beckman DU 640] at 550 nm for 90 seconds according to the manufacturer's (Sigma) instructions. The results were calculated from the enzymatic kinetics curves and are expressed as cytochrome C oxidase activity (U/μg of proteins).
The equations allowing the calculation of the enzymatic activities are the following: Enzymatic activity of cytochrome C in U/ml=ACOX=(DA/min)/21.84 with: • DA/min=A/min(v)−A/min (v0) • 21.84 (mM)=ε(molar extinction coefficient) of ferrocytochrome C at 550 nm • A=Absorbance at 550 nm • A/min(v)=Absorbance at 550 nm at time “v” in minutes, corresponding to the time of the measurement after the addition of the substrate; • A/min (v0)=Absorbance at 550 nm at time “v0” (at the start, i.e. before the addition of substrate) in minutes.
The results are expressed by comparison of the enzymatic activity measured in the presence of the vandaterosides (ACOX samples) relative to the control enzymatic activity (ACOX control): i.e. (ACOX samples)/(ACOX control).
A calculated (ACOX samples)/(ACOX control) ratio of greater than 1 indicates stimulation of the activity of cytochrome C oxidase in the presence of the samples.

[4] = tested on: HaCaT cells; assay: Measurement of mitochondrial biogenesis on modified human keratinocytes (HaCaT), qPCR of 16S and COX2 DNA versus UCP-2; type: cell-based; conditions: 48 h
Method: The objective is to verify whether or not the increase in enzymatic activity measured is linked to a basal stimulation of the respiratory chain of the mitochondria initially present or to an increase in the number of intracellular mitochondria, indicative of a stimulation of mitochondrial biogenesis.
The HaCaT cells are cultured in 6-well plates and then treated as described above. After treatment for 48 h, the cells are lysed with a buffer consisting of 10 mM of Tris base, 1 mM EDTA, 0.3M of sodium acetate and 1% SDS (1 ml/well) and according to an incubation time of overnight at 55° C. The mitochondrial DNA is extracted from the cell lysate with a phenol solution (1/1 ratio). Two cycles of centrifugation at 4000 rpm (5 minutes) are carried out. A solution de CHCl3/isoamyl alcohol (24:1, v/v) is then added to the upper aqueous phase, recovered after settling out. The mixture is then centrifuged (5 minutes, 4000 rpm, 4° C.).
Precipitation of the total DNA is induced by adding an absolute ethanol/3M sodium acetate mixture ([…]) to the supernatant. After centrifugation (30 minutes, 12000 rpm, 4° C.), the pellets are washed with EtOH at 70° v/v, and then dried and taken up in deionized water. The DNA is assayed using a spectrometer (Thermo Scientific Nanodrop). The DNA solutions are adjusted to a concentration of 10 ng/μl.
The expression of three different genes is measured by qPCR. This technique makes it possible to measure the amount of DNA polymerized by means of a fluorescent label. […]
The fluorescence is measured after the 45 cycles and the amount of DNA obtained is determined by means of the DNA range.
The results are expressed in amount of 16S and COX2 (QCOX2) DNA, calculated according to the amount of UCP-2 genomic DNA (QUCP-2), and which is defined as (QCOX2)/(QUCP-2)
A calculated (QCOX2)/(QUCP-2) ratio of greater than 1 indicates an increase in the amount of mitochondrial DNA, and reflects an increase in the number of intracellular mitochondria.

[5] = tested on: keratinocyte differentiation proteins (transglutaminase, involucrin, desmoglein 1); assay: Stimulation of the differentiation of normal human keratinocytes (immunolabeling of differentiation proteins); type: cell-based; conditions: NHKs, 12 μg/ml, treatment 5 days
Method: (§1) The NHKs are cultured at passage 3 in complete KSFM medium in a T75 flask. At the pre-confluence stage, the NHKs are trypsinized and seeded in a proportion of 20 000 cells per well in 8-well Lab-Tek II culture systems (Nalge Nunc International), 4 wells per treatment condition. At 80% confluence, the cells are treated for 5 days with the various compositions of active agents (VT1, VT2, VT3, each at 12 μg/ml) until the post-confluence stage is reached. Vitactyl® clair (extract of Malva sylvestris, Silab) at 3% is used as a positive control.
(§2) The cells are rinsed with PBS (PBS Tablets, Invitrogen GIBCO) and then fixed with formalin (Formalin Solution, 10%, Neutral Buffered, Sigma) for 10 minutes.
(§3) After rinsing with PBS, the culture chambers are filled with a 0.1% Triton solution (Triton X-100, Sigma) for 10 minutes in order to permeabilize the membranes, and then rinsed twice with PBS. The cells are then covered with a solution of PBS/1% BSA (BSA, Sigma) for 30 minutes at ambient temperature. The PBS/BSA solution is removed from the slides by inclining them on absorbent paper. […]
(§4) For each condition, four photos are taken in green fluorescence (expression of the markers) with the ×20 objective. […]
(§5) The photos are analyzed using the Leica QWin image analysis software. A program is created in order to quantify the expression of these differentiation markers.

[6] = tested on: involucrin; assay: Involucrin expression in normal human keratinocytes (immunolabeling); type: cell-based; conditions: NHKs, 12 μg/ml, treatment 5 days
Method: as §1, §2, §3, §4, §5

[7] = concentrations tested other than VT1 at 6.25 μg/ml

Row | Structure (SMILES) | Solubility in MeOH and DMSO [1] | Solubility in water ([1]; water) | Stimulation of mitochondrial dehydrogenase activity / mitochondrial respiratory functions (XTT) [2] | Activation of cytochrome C oxidase activity ([3]; 6.25 to 0.78 μg/ml) | Dose effect on cytochrome C oxidase activity ([3]; HaCaT, 6.25 to 0.78 μg/ml, 3 h) | Activation of mitochondrial biogenesis (increase in number of intracellular mitochondria) ([4]; 6.25 μg/ml, the exception means activation was seen) | Activation of mitochondrial biogenesis (increase in number of intracellular mitochondria) [4, 7] | Stimulation of keratinocyte differentiation protein expression compared with the negative control [5] | Concentration at which a gel forms in water ([1]; water) | Stimulation of the activity of the dehydrogenases relative to the negative control ([2]; NHKs, 0.78 μg/ml (1 μM), negative control DMSO 0.1%) | Cytochrome C oxidase activity level compared with resveratrol ([3]; HaCaT, 1.56 μg/ml (2 μM), 3 h, versus resveratrol 11.41 μg/ml (50 μM)) | Involucrin expression compared with positive control Vitactyl clair at 3% [6]
1 | O=C(/C=C/c1ccccc1)O[C@H]1[C@H](OC(CC(=O)OCc2ccc(O[C@@H]3O[C@H](CO)[C@@H](O)[C@H](O)[C@H]3O)cc2)(Cc2ccc(O)cc2)C(=O)OCc2ccc(O[C@@H]3O[C@H](CO)[C@@H](O)[C@H](O)[C@H]3O)cc2)O[C@H](CO)[C@@H](O)[C@@H]1O (stereo partly drawn) [VT3, 14-bis(4-β-D-glucopyranosyloxybenzyl)-(2R)-2-(2-β-D-glucopyranosyl-3-trans-cinnamoyl ester)-2-(p-hydroxybenzyl)malate] | soluble | low solubility | – | – | – | – | – | – | – | – | – | –
2 | O=C(CC(O)(Cc1ccc(O)cc1)C(=O)O)OCc1ccc(O[C@@H]2O[C@H](CO)C(O)[C@H](O)[C@H]2O)cc1 (stereo partly drawn) [VT1, 4-(4-β-D-glucopyranosyloxybenzyl)-(2R)-2-(p-hydroxybenzyl) malate] | soluble | low solubility | most effectively stimulate | stimulatory effect | A dose effect is observed | with the exception of VT1 at 6.25 μg/ml | neither of the two compounds induces an activation of mitochondrial biogenesis | most effective | – | – | – | –
3 | O=C(CC(O)(Cc1ccc(O)cc1)C(=O)OCc1ccc(O[C@@H]2O[C@H](CO)[C@@H](O)[C@H](O)[C@H]2O)cc1)OCc1ccc(O[C@@H]2O[C@H](CO)[C@@H](O)[C@H](O)[C@H]2O)cc1 (stereo partly drawn) [VT2, 1,4-bis(4-β-D-glucopyranosyloxybenzyl)-(2R)-2-(p-hydroxybenzyl) malate] | soluble | low solubility | most effectively stimulate | stimulatory effect; also recorded: best cytochrome C oxidase activator | – | – | neither of the two compounds induces an activation of mitochondrial biogenesis | most effective | approximately 10 mM | +39% | comparable to resveratrol | greater than that of the positive control

From patent US9012414B2, “Cosmetic composition” (Guerlain, priority 2010, dated 2015)
